Measurements from US7670613B2, “Androgen modulators” (Pfizer Inc., priority 2004, dated 2010).
Numbering of substitutions follows the chain as printed. Read-outs that look alike come from different tables or passages of the source.

Experiments:
hAR = target: T1, hAR (Homo sapiens, UniProt P10275); test: Competitive binding analysis on baculovirus/Sf9 generated hAR extracts with 3H-DHT tracer; details: 1 nM 3H-DHT, one hour at 4° C., mean of multiple tests
T1 construct: made in house; host or cells: baculovirus/Sf9 insect cells
T1 sequence (P10275 1-920): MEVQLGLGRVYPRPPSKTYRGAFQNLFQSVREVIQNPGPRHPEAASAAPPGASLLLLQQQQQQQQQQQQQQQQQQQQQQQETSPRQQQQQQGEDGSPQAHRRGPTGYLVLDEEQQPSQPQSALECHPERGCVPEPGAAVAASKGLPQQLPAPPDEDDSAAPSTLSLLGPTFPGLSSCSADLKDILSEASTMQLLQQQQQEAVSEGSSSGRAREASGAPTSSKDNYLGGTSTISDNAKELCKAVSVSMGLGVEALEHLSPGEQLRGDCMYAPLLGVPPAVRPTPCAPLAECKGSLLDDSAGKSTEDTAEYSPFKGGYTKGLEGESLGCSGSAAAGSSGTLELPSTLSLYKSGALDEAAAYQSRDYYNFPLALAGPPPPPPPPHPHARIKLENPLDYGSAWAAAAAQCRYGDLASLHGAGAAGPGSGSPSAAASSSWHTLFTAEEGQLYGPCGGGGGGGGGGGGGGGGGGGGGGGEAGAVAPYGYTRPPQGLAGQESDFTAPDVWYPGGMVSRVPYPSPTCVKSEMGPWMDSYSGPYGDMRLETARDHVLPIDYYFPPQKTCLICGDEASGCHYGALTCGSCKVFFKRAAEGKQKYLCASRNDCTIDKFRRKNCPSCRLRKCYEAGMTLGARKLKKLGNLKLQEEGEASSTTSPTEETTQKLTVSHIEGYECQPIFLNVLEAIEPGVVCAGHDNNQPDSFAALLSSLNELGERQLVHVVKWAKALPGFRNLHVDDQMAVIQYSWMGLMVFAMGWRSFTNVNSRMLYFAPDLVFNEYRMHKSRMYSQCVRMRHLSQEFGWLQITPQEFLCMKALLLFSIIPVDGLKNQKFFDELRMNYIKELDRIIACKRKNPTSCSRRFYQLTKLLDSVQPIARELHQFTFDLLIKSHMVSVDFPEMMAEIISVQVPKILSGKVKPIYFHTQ
Protocol: The description below describes how the assay was carried out.
Competitive binding analysis was performed on baculovirus/Sf9 generated hAR extracts in the presence or absence of different concentrations of test agent and a fixed concentration of ^3H-dihydrotestosterone (^3H-DHT) as tracer. This binding assay method is a modification of a protocol previously described (Liao S., et. al. J. Steroid Biochem. 20:11-17 1984). Briefly, progressively decreasing concentrations of compounds are incubated in the presence of hAR extract (Chang et al. P.N.A.S. Vol. 89, pp. […], 1992), hydroxylapatite, and 1 nM ^3H-DHT for one hour at 4° C. Subsequently, the binding reactions are washed three times to completely remove excess unbound ^3H-DHT. hAR bound ^3H-DHT levels are determined in the presence of compounds (i.e. competitive binding) and compared to levels bound when no competitor is present (i.e. maximum binding). Compound binding affinity to the hAR is expressed as the concentration of compound at which one half of the maximum binding is inhibited.

androgen receptor = target: T2, androgen receptor (Homo sapiens, UniProt P10275, Q868H); test: AR antagonist cell assay (MDA-MB453-MMTV clone 54-19, luciferase reporter); format: cell-based; details: 100 pM DHT, 17 hr, mean of multiple tests
T2 construct: a human breast tumor cell line expressing androgen receptor; endogenous in cells; host or cells: MDA-MB453-MMTV clone 54-19 (only the MMTV-luciferase reporter was transfected)
T2 sequence (P10275 1-920 Q868H): T1 sequence (P10275 1-920) with Q868H
Protocol: The compounds ability to antagonize the effects of androgen on the androgen receptor were determined in a whole cell assay as described immediately below.
Experimental Procedure for AR Antagonist Cell Assay
This cell line is a stable transfected cell line with MDA-MB453 cell background (a human breast tumor cell line expressing androgen receptor). A MMTV minimal promoter containing ARE was first cloned in front of a firefly luciferase reporter gene. Then the cascade was cloned into transfection vector pUV120puro. Electroporation method was used for transfecting MDA-MB-453 cell. Puromycin resistant stable cell line was selected.
Cell Culture Media and Reagents:
Culture medium: DMEM (high glucose, Gibco cat #: 11960-044), 10% FBS, and 1% L-glutamine
Plating medium: DMEM (phenol red free), 10% charcoal treated HyClone serum, 1% L-glutamine
Assay medium: DMEM (phenol red free), 1% charcoal treated HyClone serum, 1% L-glutamine, and 1% penicillin/streptomycin
3× luciferase buffer: 2% beta-mercaptoethanol, 0.6% ATP, 0.0135% luciferine in cell lysis buffer
• 1. Cells are maintained in culture medium, splitting cells when they reach 80-90% confluence • 2. To test compounds, 10,000 cells/well are plated to opaque 96 cell culture plate in 100 ul/well plating medium, culture for overnight at 37° C. in cell culture incubator • 3. Carefully remove plating medium, then add 80 ul/well of pre-warmed assay medium, add 10 ul/well testing compound (final concentration at) 1000 nM, 200 nM, 40 nM, 8 nM, 1.6 nM, and 0.32 nM), incubate at 37° C. for 30 minutes • 4. Add 10 ul/well freshly prepared DHT (final concentration at 100 pM) to each well, incubate at 37° C. for 17 hr (overnight) • 5.
The results are reported as the mean of multiple tests as described below (the numbers of tests are indicated in the footnote). N.D. denotes that the compound was not tested.

[1] = MDA-MB453-MMTV clone 54-19 cells, read-out: AR Cell IC50
[2] = hAR extract, read-out: AR Binding IC50
[3] = AR Cell IC50, MDA-MB453-MMTV clone 54-19 cells

Row | Compound | IC50 (hAR; AR Binding IC50, hAR extract) | IC50 (androgen receptor; [1]) | IC50 (hAR; [2]) | IC50 (androgen receptor; [3])
1 | CO[C@H]1CCC[C@H]1Oc1ccc(C#N)c(Cl)c1 (relative stereo) [Example 34, 2-Chloro-4-(cis-2-methoxy-cyclopentyloxy)-benzonitrile] | 172 nM | 340 nM | – | –
2 | CO[C@H]1CCCC[C@H]1Oc1ccc(C#N)c(Cl)c1 (relative stereo) [Example 36, 2-Chloro-4-(cis-2-methoxy-cyclohexyloxy)-benzonitrile] | 123 nM | 300 nM | – | –
3 | CO[C@H]1CCCC[C@@H]1Oc1ccc(C#N)c(C(F)(F)F)c1 (relative stereo) [Example 70] | – | – | 158 nM | 10 nM
4 | CC1CCCC(Oc2ccc(C#N)cc2Cl)C1C (single isomer, unassigned) [Example 64, 3-Chloro-4-(2,3-dimethyl-cyclohexyloxy)-benzonitrile] | – | 217 nM | 119 nM | –
5 | N#Cc1ccc(O[C@@H]2CCCC[C@H]2C#N)cc1C(F)(F)F (single isomer, unassigned) [Example 73, (trans)-(+)-4-(2-Cyano-cyclohexyloxy)-2-trifluoromethyl-benzonitrile] | 61 nM | 196 nM | – | –
6 | CC1(O)C[C@@H]2C[C@H]1CC2Oc1ccc(C#N)c(C(F)(F)F)c1 (stereo in doubt) [Example 1, 4-(5-Hydroxy-5-methyl-bicyclo[2.2.1]hept-2-yloxy)-2-trifluoromethyl-benzonitrile] | – | – | 655 nM | 80 nM
7 | N#Cc1ccc(O[C@H]2CC3CC[C@@H]2C3)cc1Cl (stereo in doubt) [Example 24, 4-(R)-(Bicyclo[2.2.1]hept-2-yloxy)-2-chloro-benzonitrile] | 106 nM | – | – | 15 nM
8 | N#Cc1ccc(O[C@@H]2CC3CC[C@@H]2C3)cc1Cl (stereo in doubt) [Example 25, 4-(S)-(Bicyclo[2.2.1]hept-2-yloxy)-2-chloro-benzonitrile] | 82 nM | < 0.32 nM | – | –
9 | N#Cc1ccc(O[C@H]2CCCCC2c2ccccc2)cc1Cl (stereo in doubt) [Example 33, 2-Chloro-4-(2-(S)-phenyl-(S)-cyclohexyloxy)-benzonitrile] | 60 nM | 485 nM | – | –
10 | N#Cc1ccc(O[C@H]2CCCC[C@@H]2c2ccccc2)cc1C(F)(F)F [Example 3, 4-(2-(R)-Phenyl-1-(S)-cyclohexyloxy)-2-trifluoromethyl-benzonitrile] | 73 nM | > 1000 nM | – | –
11 | C=CCC1(Oc2ccc(C#N)c(C(F)(F)F)c2)CCCCC1 [Example 4, 4-(1-Allyl-cyclohexyloxy)-2-trifluoromethyl-benzonitrile] | 48 nM | > 1000 nM | – | –
12 | CCC1CCCCC1Oc1ccc(C#N)c(C(F)(F)F)c1 (stereo not shown) [Example 7, 4-(2-Ethyl-cyclohexyloxy)-2-trifluoromethyl-benzonitrile] | – | 329 nM | 125 nM | –
13 | C[C@@H]1CCCC[C@@H]1Oc1ccc(C#N)c(C(F)(F)F)c1 [Example 9, (1S,2R)-4-(2-Methyl-cyclohexyloxy)-2-trifluoromethyl-benzonitrile] | 22 nM | 751 nM | – | –
14 | N#Cc1ccc(OC2CCCC2)cc1C(F)(F)F [Example 10] | – | 605 nM | 156 nM | –
15 | N#Cc1ccc(OC2CCCCC2)cc1C(F)(F)F [Example 11, 4-Cyclohexyloxy-2-trifluoromethyl-benzonitrile] | – | – | 390 nM | 0.5 nM
16 | CC1CCCC(C)C1Oc1ccc(C#N)c(C(F)(F)F)c1 (stereo not shown) [Example 12, 4-(2,6-Dimethyl-cyclohexyloxy)-2-trifluoromethyl-benzonitrile] | 73 nM | > 1000 nM | – | –
17 | CCCCC1(Oc2ccc(C#N)c(Cl)c2)CCCC1 [Example 21, 4-(1-Butyl-cyclopentyloxy)-2-chloro-benzonitrile] | – | > 1000 nM | 206 nM | –
18 | CCC1CCCCC1Oc1ccc(C#N)c(Cl)c1 (stereo not shown) [Example 22, 2-Chloro-4-(2-ethyl-cyclohexyloxy)-benzonitrile] | 71 nM | > 1000 nM | – | –
19 | CC1CCC(Oc2ccc(C#N)c(Cl)c2)C1 (stereo not shown) [Example 23, 2-Chloro-4-(3-methyl-cyclopentyloxy)-benzonitrile] | – | 202 nM | 145 nM | –
20 | N#Cc1ccc(OC2CCCC(O)C2)cc1Cl (stereo not shown) [Example 26, 2-Chloro-4-(3-hydroxy-cyclohexyloxy)-benzonitrile] | – | – | 404 nM | 46 nM
21 | CCC1CCCCC1Oc1ccc(C#N)c(Cl)c1 (stereo not shown) [Example 27, 2-Chloro-4-(2-ethyl-cyclohexyloxy)-benzonitrile] | 30 nM | 330 nM | – | –
22 | C[C@H]1CC[C@@H](Oc2ccc(C#N)c(Cl)c2)CC1 [Example 31, 2-Chloro-4-(4-cis-methyl-cyclohexyloxy)-benzonitrile] | – | – | 212 nM | 66 nM
23 | C[C@@H]1CCCC[C@@H]1Oc1ccc(C#N)c(Cl)c1 [Example 40, (1S,2R)-2-Chloro-4-(2-methyl-cyclohexyloxy)-benzonitrile] | 31 nM | 114 nM | – | –
